Like-named read-outs stand apart in the source and are kept apart here. Values belong to the molecule of their own block, whether it stands above or below them.
Key:
kinase Lyn b = kinase Lyn b (Homo sapiens, UniProt P07948); assay: Lyn b kinase inhibition; assay type: biochemical
Lck kinase = Lck kinase (Homo sapiens, UniProt P06239); assay: Lck kinase inhibition; assay type: biochemical
[1] = system: JAK kinases (JAK1 and JAK3); assay: JAK inhibition: IL-4-stimulated CD23 upregulation in human Ramos B-cells, FACS; assay type: cell-based; details: IL-4 stimulated Ramos B-cells, read-out: IC50, inhibition of JAK kinases in cellular assay
Method: JAK inhibition was tested in human Ramos B-cells activated with IL-4. Twenty to 24 hours post stimulation, the cells are stained for upregulation of CD23 and analyzed by FACS. Stimulation of the B-cells with IL-4 leads to the activation of the JAK/STAT pathway through phosphorylation of the JAK kinase JAK1 and JAK3, which in turn phosphorylate and activate transcription of factor […].
For the assay, human Ramos B-cells (ATCC, Catalog No. CRL-1596) are cultured in RPMI 1640 medium (Cellgro, Catalog No. 10-040-CM) containing 10% fetal bovine serum (JRH, Catalog No. 12106-500M) according to the propagation protocol supplied with the cells, and maintained at a density of approximately 3.5×10^5 cells/ml. The day before the assay, the cells are diluted to 3.5×10^5 cells/ml to insure they are in the logarithmic growth phase. The cells are spun down, and suspended in RPMI 1640 medium containing 5% fetal bovine serum to a density of 3.5×10^4 cells/ml and aliquots dispensed into a 96-well tissue culture plate. Cells are incubated with test compound (dissolved in DMSO) or DMSO (control) for 1 hr at 37° C. and then stimulated with IL-4 (Pepotech, Catalog No. 200-04) for 20-24 hours (final concentration is 50 Units/ml). Cells are then spun down, stained with anti-CD23-PE antibody (BD Pharmigen, Catalog No. 555711) and analyzed by FACS.

Syk kinase = Syk kinase (Homo sapiens, UniProt P43405); assay: cell-based Syk assay; details: read-out: IC50, inhibition of Syk kinase
Axl kinase = biological target: T1, Axl kinase (Homo sapiens, UniProt P30530); assay: Phospho-Akt in-cell Western assay (Axl antibody cross-linking, Hela cells); assay type: cell-based; details: phospho-Akt readout, read-out: IC50, inhibition of Axl kinase
T1 construct: endogenous in cells; host or cells: HeLa cells
T1 sequence (P30530 26-894): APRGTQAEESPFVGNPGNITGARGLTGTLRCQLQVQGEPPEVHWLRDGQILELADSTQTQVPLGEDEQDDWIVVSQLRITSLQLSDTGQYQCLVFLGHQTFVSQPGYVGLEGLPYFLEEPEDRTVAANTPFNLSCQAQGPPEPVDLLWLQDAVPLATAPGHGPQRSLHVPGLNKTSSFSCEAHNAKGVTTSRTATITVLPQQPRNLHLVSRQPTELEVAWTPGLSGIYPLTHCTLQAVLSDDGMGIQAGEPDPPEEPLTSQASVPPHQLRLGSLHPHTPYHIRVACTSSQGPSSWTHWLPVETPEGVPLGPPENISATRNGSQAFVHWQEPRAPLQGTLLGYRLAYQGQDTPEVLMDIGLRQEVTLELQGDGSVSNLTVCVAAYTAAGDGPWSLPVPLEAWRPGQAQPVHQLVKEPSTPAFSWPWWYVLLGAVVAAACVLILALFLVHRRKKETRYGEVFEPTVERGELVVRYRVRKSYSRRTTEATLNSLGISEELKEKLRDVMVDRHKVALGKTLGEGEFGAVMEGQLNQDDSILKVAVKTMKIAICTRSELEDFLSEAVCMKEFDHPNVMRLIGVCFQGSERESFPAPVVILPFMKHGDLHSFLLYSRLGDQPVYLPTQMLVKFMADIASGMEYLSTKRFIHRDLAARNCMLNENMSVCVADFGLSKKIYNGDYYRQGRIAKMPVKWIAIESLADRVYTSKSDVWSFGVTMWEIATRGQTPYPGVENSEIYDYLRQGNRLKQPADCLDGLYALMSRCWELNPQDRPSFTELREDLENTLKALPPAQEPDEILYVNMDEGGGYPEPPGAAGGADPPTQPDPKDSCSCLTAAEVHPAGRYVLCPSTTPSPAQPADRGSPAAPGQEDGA
Summary of the method: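 HeLa cells were starved 24 h in 0.5% FCS with 500 ng/mL Axl/Fc, pretreated with compound 1 h at 37 °C, then stimulated 5 min by cross-linked anti-Axl antibodies. Phospho-Akt was detected by in-cell chemiluminescent immunoassay and normalized to crystal violet cell number at 590 nm.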

tumor cell lines = details: cited from earlier work; for antiproliferative activity against tumor cell types: in vitro assays, variety of tumor cell lines

Sequence of kinase Lyn b (P07948 1-491 isoform P07948-2): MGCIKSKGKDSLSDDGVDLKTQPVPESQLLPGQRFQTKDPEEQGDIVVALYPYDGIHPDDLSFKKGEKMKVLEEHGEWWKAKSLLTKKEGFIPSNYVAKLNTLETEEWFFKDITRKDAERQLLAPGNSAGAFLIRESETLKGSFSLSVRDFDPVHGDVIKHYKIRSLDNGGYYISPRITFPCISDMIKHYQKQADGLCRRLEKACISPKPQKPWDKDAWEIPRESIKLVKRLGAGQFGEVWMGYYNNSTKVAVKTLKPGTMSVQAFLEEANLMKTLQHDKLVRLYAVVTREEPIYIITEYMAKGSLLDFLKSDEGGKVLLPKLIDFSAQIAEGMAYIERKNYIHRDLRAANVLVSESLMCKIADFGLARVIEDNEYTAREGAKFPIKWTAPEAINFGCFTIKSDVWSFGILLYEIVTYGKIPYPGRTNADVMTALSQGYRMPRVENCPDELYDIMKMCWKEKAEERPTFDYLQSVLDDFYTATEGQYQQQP
Sequence of Lck kinase (P06239 whole entry): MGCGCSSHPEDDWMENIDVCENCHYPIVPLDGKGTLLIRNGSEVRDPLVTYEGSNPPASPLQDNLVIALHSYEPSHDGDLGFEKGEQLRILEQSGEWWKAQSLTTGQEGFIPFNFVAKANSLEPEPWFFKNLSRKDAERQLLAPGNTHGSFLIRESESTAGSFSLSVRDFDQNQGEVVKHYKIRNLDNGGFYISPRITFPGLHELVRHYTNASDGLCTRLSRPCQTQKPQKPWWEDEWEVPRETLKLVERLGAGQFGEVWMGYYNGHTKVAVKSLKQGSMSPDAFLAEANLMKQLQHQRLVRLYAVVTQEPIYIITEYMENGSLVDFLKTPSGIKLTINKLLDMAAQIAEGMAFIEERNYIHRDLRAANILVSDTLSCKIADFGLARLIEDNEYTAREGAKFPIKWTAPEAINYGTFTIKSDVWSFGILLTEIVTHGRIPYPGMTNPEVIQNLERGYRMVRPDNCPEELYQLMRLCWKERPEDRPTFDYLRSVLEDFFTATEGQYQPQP

IC50 (kinase Lyn b): < 1 µM
Structure (SMILES): CNC(=O)COc1cccc(Nc2nc(NC3C4C=CC(C4)C3C(N)=O)c3nc[nH]c3n2)c1 (racemic) [Compound 104]

IC50 (kinase Lyn b): < 1 µM
Structure (SMILES): NC(=O)C1C2C=CC(C2)C1Nc1nc(Nc2ccc3c(c2)OCC(=O)N3)nc2[nH]cnc12 (racemic) [Compound 107, Racemic-(2-exo,3-exo)-N6-(3-aminocarbonylbicyclo[2.2. 1]hept-5-en-2-yl)-N2-(3,4-dihydro-3-oxo-2H-1,4-benzoxazin-7-yl)-1H-purine-2,6-diamine]

IC50 (kinase Lyn b): < 1 µM
Structure (SMILES): CCOc1cccc(Nc2nc(NC3C4C=CC(C4)C3C(N)=O)c3nc[nH]c3n2)c1 (racemic) [Compound 131, Racemic-(2-exo,3-exo)-N6-(3-aminocarbonylbicyclo[2.2. 1]hept-5-en-2-yl)-N2-(3-ethoxy)phenyl-1H-purine-2,6-diamine]

IC50 (kinase Lyn b): < 1 µM
Structure (SMILES): Cc1ccc(Nc2nc(NC3C4C=CC(C4)C3C(N)=O)c3nc[nH]c3n2)cc1F (racemic) [Compound 134, Racemic-(2-exo,3-exo)-N6-(3-aminocarbonylbicyclo[2.2. 1]hept-5-en-2-yl)-N2-(3-fluoro-4-methy)phenyl-1H-purine-2,6-diamine]

IC50 (Lck kinase): < 5 µM
IC50 [1]: > 10 µM
Structure (SMILES): NC(=O)C1C2C=CC(C2)C1Nc1nc(Nc2cccc3[nH]ccc23)nc2[nH]cnc12 (racemic) [Compound 135, Racemic-(2-exo,3-exo)-N6-(3-aminocarbonylbicyclo[2.2. 1]hept-5-en-2-yl)-N2-(1H-indol-4-yl)-1H-purine-2,6-diamine]

IC50 (kinase Lyn b): > 10 µM
IC50 (Lck kinase): < 10 µM
IC50 (Syk kinase): < 10 µM
Structure (SMILES): COc1ccccc1Nc1nc(NC2C3C=CC(C3)C2C(N)=O)c2nc[nH]c2n1 (racemic) [Compound 136, Racemic-(2-exo,3-exo-)-N6-(3-aminocarbonylbicyclo[2.2. 1]hept-5-en-2-yl)-N2-(2-methoxy)phenyl-1H-purine-2,6-diamine]

IC50 (Lck kinase): < 5 µM
IC50 (Syk kinase): < 10 µM
Structure (SMILES): Cc1cccc(Nc2nc(NC3CC4CCC3C4)c3nc[nH]c3n2)c1 (racemic) [Compound 151, Racemic-(2-exo)-N6-(bicyclo[2.2.1]hept-2-yl)-N2-(3-methyl)phenyl-1H-purine-2,6-diamine]

IC50 (Lck kinase): < 5 µM
IC50 [1]: > 10 µM
Structure (SMILES): NC(=O)c1c[nH]c2ccc(Nc3nc(NC4C5C=CC(C5)C4C(N)=O)c4nc[nH]c4n3)cc12 (racemic) [Compound 152, Racemic-(2-exo,3-exo-)-N6-(3-aminocarbonylbicyclo[2.2. 1]hept-5-en-2-yl)-N2-(3-aminocarbonyl-1H-indol-5-yl)-1H-purine-2,6-diamine]

IC50 (Lck kinase): < 5 µM
IC50 [1]: < 5 µM
IC50 (Syk kinase): < 10 µM
Structure (SMILES): CC(C)Oc1cccc(Nc2nc(NC3CC4CCC3C4)c3nc[nH]c3n2)c1 (racemic) [Compound 153, Racemic-(2-exo)-N6-(bicyclo[2.2.1]hept-2-yl)-N2-(3-isopropoxy)phenyl-1H-purine-2,6-diamine]

IC50 (kinase Lyn b): < 1 µM
Structure (SMILES): COc1cccc(Nc2nc(NC3CC4CCC3C4)c3nc[nH]c3n2)c1 (racemic) [Compound 154, Racemic-(2-exo)-N6-(bicyclo[2.2.1]hept-2-yl)-N2-(3-methoxy)phenyl-1H-purine-2,6-diamine]

IC50 (Lck kinase): < 5 µM
Structure (SMILES): Cc1cccc(Nc2nc(NC3C4CCC(C4)C3C(N)=O)c3cc[nH]c3n2)c1 (racemic) [Compound 165, Racemic-(2-exo,3-exo)-N4-(3-aminocarbonylbicyclo[2.2. 1]hept-2-yl)-N2-(3-methyl)phenyl-1H-pyrrolo[2,3-d]pyrimidine-2,4-diamine]

IC50 (Axl kinase): > 10 µM
IC50 [1]: < 5 µM
IC50 (Syk kinase): > 10 µM
Structure (SMILES): COc1cc(Nc2nc(NC3C4C=CC(C4)C3C(N)=O)c3scc(C)c3n2)cc(OC)c1OC (racemic) [Compound 238]

IC50 (Axl kinase): > 10 µM
IC50 [1]: < 5 µM
IC50 (Syk kinase): < 5 µM
Structure (SMILES): Cc1csc2c(NC3C4C=CC(C4)C3C(N)=O)nc(Nc3ccc4[nH]ccc4c3)nc12 (racemic) [Compound 239, Racemic-(2-exo,3-aminocarbonylbicyclo [2.2.1]hept-5-en-2-yl)-N2-[1H-indol-5-yl]-thieno[3,2-d]pyrimidine-2,4-diamine]

Structure (SMILES): Cc1cc(Nc2ncc(F)c(NC3C4C=CC(C4)C3C(N)=O)n2)ccc1N1CCN(C)CC1 (racemic) [cis exo-exo racemate, N4-(3-aminocarbonylbicyclo [2.2.1]hept-5-en-2-yl)-5-fluoro-N2-[3-methyl-4-(4-methylpiperazin-1-yl)phenyl]-2,4-pyrimidinediamine]
potency of exo-exo racemate relative to endo-endo racemate (tumor cell lines; all cell lines tested): approximately twenty-fold
antiproliferative activity against tumor cell types (tumor cell lines): exhibit antiproliferative activity

Structure (SMILES): Cc1cc(Nc2ncc(F)c(NC3C4C=CC(C4)C3C(N)=O)n2)ccc1N1CCN(C)CC1 [(1S,2S,3R,4R) diastereomer, N4-(3-aminocarbonylbicyclo [2.2.1]hept-5-en-2-yl)-5-fluoro-N2-[3-methyl-4-(4-methylpiperazin-1-yl)phenyl]-2,4-pyrimidinediamine]
IC50s against tumor cell lines (tumor cell lines; isolated stereoisomers): micromolar range

IC50 (kinase Lyn b): < 1 µM
Structure (SMILES): NC(=O)[C@@H]1[C@H](Nc2nc(Nc3cccc(F)c3)nc3[nH]cnc23)[C@H]2C=C[C@@H]1C2 [Compound 109, (1R,2R,3S,4S)-N6-(3-Aminocarbonylbicyclo[2.2. 1]hept-5-en-2-yl)-N2-(3-fluoro)phenyl-1H-purine-2,6-diamine]

IC50 (kinase Lyn b): < 1 µM
Structure (SMILES): NC(=O)[C@@H]1[C@H](Nc2nc(Nc3cccc(OCCN4CCOCC4)c3)nc3[nH]cnc23)[C@H]2C=C[C@@H]1C2 [Compound 112, (1R,2R,3S,4S)-N6-(3-Aminocarbonylbicyclo[2.2. 1]hept-5-en-2-yl)-N2-[3-(2-morpholin-4-yl-ethoxy)phenyl]-1H-purine-2,6-diamine]

IC50 (kinase Lyn b): < 1 µM
Structure (SMILES): NC(=O)[C@H]1[C@@H](Nc2nc(Nc3cccc(OCCN4CCOCC4)c3)nc3[nH]cnc23)[C@@H]2C=C[C@H]1C2 [Compound 113, (1S,2S,3R,4R)-N6-(3-Aminocarbonylbicyclo[2.2. 1]hept-5-en-2-yl)-N2-[3-(2-morpholin-4-yl-ethoxy)phenyl]-1H-purine-2,6-diamine]

IC50 (kinase Lyn b): < 1 µM
Structure (SMILES): NC(=O)[C@@H]1[C@H](Nc2nc(Nc3ccc(Cc4ccncc4)cc3)nc3[nH]cnc23)[C@H]2C=C[C@@H]1C2 [Compound 148, (1R,2R,3S,4S)-N6-(3-Aminocarbonylbicyclo[2.2. 1]hept-5-en-2-yl)-N2-[4-(4-pyridinylmethyl)phenyl]-1H-purine-2,6-diamine]

Structure (SMILES): Cc1cc(Nc2ncc(F)c(NC3CCCC3C(N)=O)n2)ccc1N1CCN(C)CC1 [trans (1S,2S) diastereomer, N4-(2-aminocarbonylcyclopent-1-yl)-5-fluoro-N2-[4-(4-methylpiperazin-1-yl)-3-methylphenyl]-2,4-pyrimidinediamine]
antiproliferative activity against tumor cell types (tumor cell lines): relatively inactive
antiproliferative activity against tumor cell types (tumor cell lines; listed as trans(1S,2S)): relatively inactive
